Results: patent publication US6413967B1, “Inhibition of novel calcium entry pathway in electrically non-excitable cells acting as an anti-proliferative therapy” (The University of Virginia Patents Foundation, priority 1995, dated 2002)

How the values were obtained:
[1] = system: VG Ca^2+ current in Jurkat cells; test: perforated patch clamp, voltage gated (VG) Ca2+ current; format: cell-based, human; conditions: for effect on the VG Ca^2+ current: amiloride 100 μM, MnCl2 300 μM, NiCl2 1 mM, W-7 alone (unstimulated current)
Description: (§1) All recordings were performed using the perforated patch method (Horn et al, J. Gen. Physiol. (1988) 92:145) of the gigaseal patch clamp technique (Hammil et al, Pflugers Arch (1981) 391:85) with microelectrodes of 5-10 megohm series resistance. In all solutions for voltage clamp, K^+ was replaced with Cs^+ to block outward K^+ currents (Fox et al, J. Physiol. (Lond.) (1987) 392:149). The bath solution contained (in mM): NaCl, 155; CsCl, 4.5; CaCl2, 2; MgCl2, 1; D-glucose, 5; HEPES, 10 (pH 7.4 with NaOH). The pipette solution contained (in mM): CsCl, 55; Cesium methanesulfonate, 70; CaCl2, 1; MgCl2, 7; HEPES, 10 (pH 7.3 with NaOH). Nystatin was made as a stock solution of 6 mg/100 μl DMSO, and 2 μl of the stock was added to 1 ml of the pipette solution for use. Both pipette and bath solutions were 290-300 mOsm. Experiments were performed on cells at room temperature using the Axopatch-1D patch clamp (Axon Instruments, Foster City, Calif.) after correction of junction potentials and leak subtraction. Records were low-pass filtered at 500 Hz, and the data were collected, stored and analyzed using the pClamp software program (Axon Instruments). For the non-voltage gated current traces, data is presented either as the tracing from a chart recorder or from the digital data in which the current was measured at 5 second intervals and plotted as individual points.

[2] = system: NVG current in Jurkat cells; test: perforated patch clamp, non-voltage gated (NVG) current; format: cell-based, human; conditions: for effect on the thapsigargin-induced NVG current: membrane potential −60 mV, 300 nM thapsigargin, amiloride 100 μM, MnCl2 300 μM, NiCl2 1 mM, W-7 30 μM, NDGA 10 μM
Description: as §1

[3] = system: Ca^2+ entry pathway in Jurkat cells; test: thapsigargin-stimulated Ca2+ entry measured with Ca2+-sensitive dyes (indo-1, fluo-3); format: cell-based, human; conditions: 300 nM thapsigargin, amiloride 100 μM (fluo-3), Ni^2+ 1 mM, NDGA 10 μM (indo-1)
Description: Lymphocytes were suspended in culture medium at 37° C. for 1 h in the presence of 1 μM of the Ca^2+ indicator dye indo-1 /AM. Cells were washed twice in buffer A (140 mM NaCl, 3 mM KCl, 1 mM CaCl2, 1 mM MgCl2, 0.1% D-glucose, 1% FBS, 10 mM HEPES, pH 7.4) and were suspended at a final concentration of 1×10^6 cells/ml in buffer A. The excitation wavelength was 340 nm and emission was monitored at 398 nm in an SLM 8000 spectrofluorometer (SLM/Aminco, Urbana, Ill.), with the temperature maintained at 37° C. Data are plotted as relative fluorescence intensity at 398 nm as a measure of [Ca^2+]i. For FIG. 7, indo-1 emission was monitored at 398 nm and 480 nm and [Ca^2+]i was determined as described previously (Gray et al, J. Immunol (1987) 138:63; Haverstick et al, Mol. Biol. Cell (1993) 4:173).
Jurkat cells were loaded with indo-1/AM as described above. The excitation wavelength was 340 nm and emission was measured at 441 nm. The fluorescence of indo-1 at 441 nm is insensitive to changes in [Ca^2+]i (Sage et al, Biochem. J. (1989) 258:923) and is plotted as relative fluorescence intensity.
Because amiloride interferes with the fluorescence of indo-1 (Wacholtz et al, J. Immunol. (1992) 149:1912), fluo-3 was used to monitor [Ca^2+]i in the presence of amiloride. Jurkat cells were suspended in culture medium at 37° C. for 1 h in the presence of 1 μM fluo-3/AM and 1 mM probenecid to decrease dye leakage (DiVirgilio et al, Methods Cell Biol. (1989) 31:453). After two washes in buffer A, cells were suspended at a concentration of 1×10^6 cells/ml in buffer A with 1 mM probenecid and were maintained in a cuvette at 37° C. The excitation wavelength was 506 nm and the emission was monitored at 526 nm. Data are presented sa relative fluorescence intensity at 526 nm.

[4] = system: Ca^2+ entry pathway in Jurkat cells; conditions: previously demonstrated (Haverstick et al 1993); cited from earlier work
[5] = system: [Ca^2+]i in Jurkat T cells; test: receptor-stimulated Ca2+ influx in Jurkat T cells (anti-CD3 mAb OKT3); format: cell-based, human; conditions: Homo sapiens, Jurkat; maximal [Ca^2+]i after anti-CD3 mAb OKT3; drug 1 min prior
Description: Initially, all drugs are screened using Jurkat T cells incubated with indo-1/AM as outlined below. In the event that there is an effect of the drug on the maximum [Ca^2+]i reached following treatment of the cells with the anti-CD3 mAb […], the drug is evaluated for any effects on the spectral characteristics of indo-1 as outlined in Haverstick and Gray, Mol. Biol. Cell (1993) 4:173. If there is an effect of the drug on the spectral characteristics of indo-1 , the drug is further examined for spectral effects on the combination of fura-red and fluo-3. If there is no effect of the drug on the fura-red/fluo-3 combination, the drug is examined for effects on the maximum [Ca^2+]i reached following OKT3 treatment of cells incubated with 5 μM fura-red and […] as outlined below.
Jurkat cells are incubated in RPMI-1640 plus 5% fbs in the presence of the acetoxymethyl ester of either indo-1 (1 μM) or the combination of fura-red (5 μM) with fluo-3 (1 μM) for one hour at 37° C. Cells are washed three times in buffer A [[…] 4-(2-hydroxyethyl)-1-piperazine ethanesulfonic acid (HEPES), pH 7.4, 3 MM KCl, 1 mM MgCl2, 1 mM CaCl2, 140 mM NaCl, 0.1% glucose] containing 1% fbs and suspended to a final concentration of 1×10^6/ml. Cells are then placed in the 37° C. jacketed cell holder of the SLM 8000C. Antigen receptor engagement is mimicked by the addition of the anti-CD3 monoclonal antibody OKT3 (Gray et al, J. Exp. Med. (1988) 167:1963; Gray et al, J. Immunol. 142:1631). The effect of drug added prior to receptor stimulation or at the plateau phase of Ca^2+ entry is determined as follows:
Prior drug: 10 or 30 μM drug @ 30 seconds, 1 μg/ml OKT3 at 90 seconds
Post drug: 1 μg/ml OKT3 at 30 second, 10 or 30 μM drug @ 120 seconds

[6] = system: Jurkat T cells; test: Jurkat cell proliferation, tetrazolium dye; format: cell-based, human; conditions: Homo sapiens, Jurkat; incubation 44 to 48 h; read-out: JURKAT prolif IC50
Description: (§2) The effect of various drugs on the proliferation of Jurkat T cells, MDA-468 human breast cancer cells and PC3 human prostate cancer cells was determined by incubating the cells with the indicated concentrations of drug for 48 hours. The number of viable cells remaining at the end of the incubation period was evaluated using the procedure outlined in Example 4.
(§3) Cells are plated in triplicate in a 96-well flat-bottomed plate (Jurkat: 5e4 cells/well in RPMI-1640 plus 5% fbs; MDA468: 2.5e4 per well in DMEM plus 5% fbs and 11 μg/ml insulin) in the absence (control) or presence of drug at 3, 10, 30, and 100 μM. An additional control of 100 μM drug in RPMI-1640 plus 5% fbs or DMEM plus 5% fbs and 11 μg/Ml insulin with no cells is included with each run to control for possible drug interactions with the dye. The plate is then placed in a 5% CO2 37° C. incubator for 44 to 48 hours. 20 μl of dye solution containing a tetrazolium dye (3-(4,5-dimethylthiazol-2-yl)-5-(3-carboxymethoxyphenyl)-2-(4-sulfophenyl)-2H-tetrazolium, Owen's reagent) plus coupling reagent (phenazine methosulfate) is added to each well, the plate is returned to the incubator, and the absorbance at 490 nm is read using an ELISA plate reader 3 to 4 h (Jurkat cells) or 2 to 3 h (MDA-468 cells) later. All data are presented as percent of control (no drug addition). With this protocol, it is possible to determine the effect of 5 drugs at 4 concentrations in a single 96-well plate as outlined below: […]

[7] = system: MDA-468 human breast cancer cells; test: MDA-468 cell proliferation, tetrazolium dye; format: cell-based; conditions: Homo sapiens; incubation 44 to 48 h; read-out: MDA-468 prolif IC50
Description: as §2, §3

[8] = system: [Ca^2+]i in MDA-468 cells; test: EGF receptor-stimulated Ca2+ influx in MDA-468 cells; format: cell-based; conditions: Homo sapiens; maximal [Ca^2+]i, Ca^2+ entry triggered by 50 ng/ml EGF
[9] = system: human prostate cancer cell line PC3; test: PC3 cell proliferation, tetrazolium dye; format: cell-based; conditions: PC-3, 5×10^4 PC3 cells, 48 hours

SMILES: [Cl][Mn][Cl] [MnCl2]
- increase of the VG Ca^2+ current ([1]; 0.3 mM Mn^2+ in medium containing 2 mM Ca^2+): about 10%
- effect on the VG Ca^2+ current [1]: not blocked
- effect on the thapsigargin-induced NVG current [2]: reversibly blocked

SMILES: [Cl][Ni][Cl] [Ni^2+, NiCl2]
- effect on the VG Ca^2+ current [1]: eliminated the VG Ca^2+ current
- effect on the thapsigargin-induced NVG current [2]: blocked
- effect on thapsigargin-stimulated Ca^2+ entry [3]: blocked Ca^2+ entry

SMILES: NCCCCCCNS(=O)(=O)c1cccc2c(Cl)cccc12 [W-7, N-(6-aminohexyl)-5-chloro-1-naphthalenesulfonamide]
- effect on the VG Ca^2+ current [1]: not affected
- effect on thapsigargin-mediated augmentation of the VG Ca^2+ current ([1]; drug added before 300 nM thapsigargin, W-7 30 μM): blocked the augmentation
- effect on the thapsigargin-induced NVG current [2]: not affected
- effect on Ca^2+ influx induced by thapsigargin, by Ca^2+-sensitive dyes [4]: eliminates

SMILES: N=C(N)NC(=O)c1nc(Cl)c(N)nc1N [amiloride]
- effect on the VG Ca^2+ current [1]: not blocked
- effect on the thapsigargin-induced NVG current [2]: virtually eliminated
- effect on the thapsigargin-induced NVG current ([2]; listed as Amiloride): completely inhibited
- effect on thapsigargin-stimulated Ca^2+ entry [3]: no effect

SMILES: CN(C)CCCN1c2ccccc2Sc2ccc(Cl)cc21 [chloropromazine, 2-chloro-10-[3-dimethylaminopropyl]-phenothiazine]
- IC50 [5]: 25 µM
- IC50 [6]: 90 µM
- IC50 [7]: 20 µM
- IC50 [8]: 5 µM

SMILES: CC(CN1c2ccccc2Sc2ccccc21)N(C)C (stereo not drawn) [promethazine, N,N,α-trimethyl-10H -phenothiazine-10-ethanamine]
- IC50 [5]: 65 µM
- IC50 [6]: 3.5 µM
- IC50 [9]: ~40 µM
- IC50 [7]: 30 µM
- IC50 [8]: 105 µM

SMILES: C/C=C(/C)C(=O)O[C@H]1C(C)=C2[C@H]([C@@H]1OC(=O)CCCCCCC)[C@@](C)(OC(C)=O)C[C@H](OC(=O)CCC)[C@@]1(O)[C@H]2OC(=O)[C@@]1(C)O [thapsigargin]
- mean maximum VG Ca^2+ current following addition ([1]; 300 nM thapsigargin, n=10, unstimulated 18.7 pA): 30.6 pA
- mean maximum magnitude of the induced NVG current ([2]; imposed membrane potential −60 mV, n=38): 3.6 pA
